Biological target: T1, human carboxylesterase 1 (hCE1) (Homo sapiens, UniProt P23141)
T1 sequence (P23141 18-567): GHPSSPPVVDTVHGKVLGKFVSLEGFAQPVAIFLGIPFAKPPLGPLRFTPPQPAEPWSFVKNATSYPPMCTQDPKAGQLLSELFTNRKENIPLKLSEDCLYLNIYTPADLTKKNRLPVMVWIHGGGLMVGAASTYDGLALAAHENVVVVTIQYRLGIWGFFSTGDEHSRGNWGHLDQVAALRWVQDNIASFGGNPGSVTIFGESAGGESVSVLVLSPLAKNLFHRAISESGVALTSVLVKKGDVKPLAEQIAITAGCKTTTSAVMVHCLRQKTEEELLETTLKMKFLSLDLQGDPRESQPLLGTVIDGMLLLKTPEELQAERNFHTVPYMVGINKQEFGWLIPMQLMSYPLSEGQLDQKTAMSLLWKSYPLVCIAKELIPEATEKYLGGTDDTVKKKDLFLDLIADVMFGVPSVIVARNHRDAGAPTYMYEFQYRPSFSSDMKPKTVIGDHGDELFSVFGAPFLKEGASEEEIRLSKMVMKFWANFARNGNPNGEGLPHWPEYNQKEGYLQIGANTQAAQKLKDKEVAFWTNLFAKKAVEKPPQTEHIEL
Assay: hCE1 inhibition, p-nitrophenyl acetate hydrolysis
Assay type: biochemical

| SMILES | IC50 [µM] |
| --- | --- |
| CCCCCCCCOCC(=O)C(F)(F)F [Compound 4, 1,1,1-trifluoro-3-octyloxypropan-2-one] | 0.02 |
| CCCCCCCCCCC(C)=O [Compound 9, 2-dodecanone, reference compound] | > 1000 |
